Consider 15 compounds from patent US20230322776A1, “NEW ARYL-PYRIDO-PYRIMIDIN-ONE DERIVATIVES” (Hoffmann-La Roche Inc., priority 2020, published 2023).

Each structure is given as a SMILES string. pEC50, pIC50, pKd: −log10 of the molar value.

Test [1] has as its target BRAF V660E (Homo sapiens, UniProt P15056, V600E). Nature of the test: KD BRAF V660E (Table 1; no method described). The format is binding.
Test [2] relates to A375 cells (V600E mutated BRAF), ERK phospho-T202/Y204. Briefly: HTRF assay for P-ERK determination in A375 cells (BRAF inhibition). The test is classed as cell-based. The note with it: Homo sapiens, A-375, 1 hour drug incubation, DMSO = 100%, 10 μM Dabrafenib = 0%, top concentration 10 μM, read-out: P-ERK_A375: IC50. A digest of the protocol:
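A375 cells (V600E BRAF), 8000/well, treated 1 h with compounds at 0.001–10 μM final in duplicate; lysed and phospho-ERK (Thr202/Tyr204) read by HTRF at 665/620 nm after overnight RT incubation. Blank-subtracted ratios normalized to DMSO (100%) and 10 μM dabrafenib (0%); IC50 from sigmoidal fit.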

For test [3], the system named is HCT116 cells (WT BRAF), ERK phospho-T202/Y204. Nature of the test: HTRF assay for P-ERK determination in HCT116 cells (BRAF activation, paradox). The note with it: for pEC50: Homo sapiens, HCT-116, HCT116 cells, 1 hour drug incubation, activation relative to maximum Dabrafenib-mediated activation (100%), top concentration 10 μM, read-out: P-ERK_HCT-116: EC50—50PCT; for Fold Selectivity HCT-116 EC50-50/ A375: ratio of P-ERK HCT-116 EC50-50PCT to P-ERK A375 IC50. The test is classed as cell-based. A digest of the protocol:
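HCT116 (WT BRAF) cells, 8000/well in DMEM + 10% FBS, treated 1 h with compound at 0.001–10 μM in duplicate; lysed, then HTRF antibodies for ERK phospho-T202/Y204, read after overnight dark incubation at room temperature. Blank-subtracted ratio normalized to DMSO (0%) and peak dabrafenib signal (100%); sigmoidal or bell-shaped fit gives % activation.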
(Time-resolved FRET reads energy transfer from a long-lived donor to a nearby acceptor.)

For test [4], the target named is BRAF (Homo sapiens, UniProt P15056). Briefly: KD BRAF (Table 1; no method described). The format is binding.
Chain of BRAF (P15056 whole entry): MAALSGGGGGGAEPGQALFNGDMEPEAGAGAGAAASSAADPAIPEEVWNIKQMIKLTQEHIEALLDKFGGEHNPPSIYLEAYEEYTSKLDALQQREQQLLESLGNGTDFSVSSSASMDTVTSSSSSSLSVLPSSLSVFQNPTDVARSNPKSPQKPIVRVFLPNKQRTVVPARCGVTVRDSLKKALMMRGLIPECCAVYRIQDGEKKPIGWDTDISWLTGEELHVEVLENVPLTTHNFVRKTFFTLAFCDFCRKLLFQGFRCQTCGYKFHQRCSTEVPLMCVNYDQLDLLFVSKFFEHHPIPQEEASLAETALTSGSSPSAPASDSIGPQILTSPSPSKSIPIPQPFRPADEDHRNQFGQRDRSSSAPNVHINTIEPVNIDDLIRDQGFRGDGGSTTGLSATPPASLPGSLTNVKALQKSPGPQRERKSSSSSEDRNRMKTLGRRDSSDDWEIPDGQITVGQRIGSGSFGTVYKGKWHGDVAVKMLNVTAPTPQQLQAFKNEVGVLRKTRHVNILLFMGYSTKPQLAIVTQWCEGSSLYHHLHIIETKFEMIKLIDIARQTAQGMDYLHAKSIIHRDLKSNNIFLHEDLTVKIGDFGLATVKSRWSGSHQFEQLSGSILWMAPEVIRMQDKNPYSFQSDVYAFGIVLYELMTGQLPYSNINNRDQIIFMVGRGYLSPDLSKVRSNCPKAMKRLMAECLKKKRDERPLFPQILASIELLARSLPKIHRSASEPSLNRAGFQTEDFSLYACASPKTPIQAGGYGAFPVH

Chain of BRAF V660E (P15056 2-766 V600E): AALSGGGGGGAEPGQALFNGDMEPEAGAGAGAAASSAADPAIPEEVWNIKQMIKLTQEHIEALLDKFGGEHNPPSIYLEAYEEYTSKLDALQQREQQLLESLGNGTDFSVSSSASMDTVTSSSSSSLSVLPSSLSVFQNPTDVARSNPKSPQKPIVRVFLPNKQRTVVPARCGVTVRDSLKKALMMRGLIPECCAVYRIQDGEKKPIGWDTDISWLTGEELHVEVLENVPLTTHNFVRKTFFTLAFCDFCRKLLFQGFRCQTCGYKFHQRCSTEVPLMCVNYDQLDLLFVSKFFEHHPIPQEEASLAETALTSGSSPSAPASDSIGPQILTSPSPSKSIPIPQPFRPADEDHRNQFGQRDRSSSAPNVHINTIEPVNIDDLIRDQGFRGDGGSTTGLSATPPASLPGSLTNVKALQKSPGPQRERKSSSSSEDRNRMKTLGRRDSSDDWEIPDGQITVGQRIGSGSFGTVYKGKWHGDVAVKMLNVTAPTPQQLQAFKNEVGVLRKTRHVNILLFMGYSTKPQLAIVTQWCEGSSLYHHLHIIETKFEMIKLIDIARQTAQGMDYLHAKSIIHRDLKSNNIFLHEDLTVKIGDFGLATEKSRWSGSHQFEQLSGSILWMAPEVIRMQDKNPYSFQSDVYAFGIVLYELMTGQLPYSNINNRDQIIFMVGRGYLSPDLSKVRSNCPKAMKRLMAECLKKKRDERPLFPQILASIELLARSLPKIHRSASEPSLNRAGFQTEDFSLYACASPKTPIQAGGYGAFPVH

One may read the pKd as the Kd on a negative log10 scale, so that one unit is a factor of ten. A low value points to a high Kd. Usually pIC50 stands for the negative decadic logarithm of the IC50, by convention in mol/L. What is called pEC50 is −log10 of the EC50, conventionally taken in molar units. Take `CCN(C)S(=O)(=O)Nc1cccc(-c2cc3cnc(NCCC4CCN(C(C)=O)CC4)nc3n(C)c2=O)c1C#N` [Example 37, 2-[2-(1-acetylpiperidin-4-yl)ethylamino]-6-[2-cyano-3-[[ethyl(methyl)sulfamoyl]amino]phenyl]-8-methyl-7-oxopyrido[2,3-d]pyrimidine]: the pKd in test [1] was 8.40. For the same compound, the pIC50 in test [2] was 7.31. For the same compound, in test [3], the negative-log EC50 (pEC50) is 6.33 and the “Fold Selectivity HCT-116 EC50-50/ A375” value is reported as 9.4. Besides, the pKd in test [4] is 8.66.
For `Cn1c(=O)c(-c2c(F)ccc(NS(=O)(=O)N3CCCC3)c2F)cc2cnc(NCCC3CCN(C(=O)OC(C)(C)C)CC3)nc21` [Example 8, tert-butyl 4-[2-[[6-[2,6-difluoro-3-(pyrrolidin-1-ylsulfonylamino)phenyl]-8-methyl-7-oxopyrido[2,3-d]pyrimidin-2-yl]amino]ethyl]piperidine-1-carboxylate], in that order: 6.50, 6.62, 5.01, 40.5 and 6.58.
On the same counts, the results for `CC(=O)N1CCC(n2c(=O)c(-c3c(F)ccc(NS(=O)(=O)N4CC[C@@H](F)C4)c3F)cc3cnc(NCC4CC4)nc32)C1` (mixture of isomers) [Example 42, (3R)-N-[3-[8-((3RS)-1-acetylpyrrolidin-3-yl)-2-(cyclopropylmethylamino)-7-oxopyrido[2,3-d]pyrimidin-6-yl]-2,4-difluorophenyl]-3-fluoropyrrolidine-1-sulfonamide] are 7.30, 6.42, 5.32, 12.8 and 7.65.
Compound `CC(=O)N(C)Cc1cccc(CCNc2ncc3cc(-c4c(F)ccc(NS(=O)(=O)N5CC[C@@H](F)C5)c4F)c(=O)n(C)c3n2)c1` [Example 36, N-[[3-[2-[[6-[2,6-difluoro-3-[[(3R)-3-fluoropyrrolidin-1-yl]sulfonylamino]phenyl]-8-methyl-7-oxopyrido[2,3-d]pyrimidin-2-yl]amino]ethyl]phenyl]methyl]-N-methylacetamide] had a pKd in test [1] of 7.76. In test [2], the pIC50 is 7.69. In addition, in test [3], the pEC50 was 5.56 and the “Fold Selectivity HCT-116 EC50-50/ A375” value came out at 133.4. In addition, the pKd in test [4] was 8.05.
For `Cn1c(=O)c(-c2c(F)ccc(NS(=O)(=O)N3CC[C@@H](F)C3)c2F)cc2cnc(NCCCC(=O)OC(C)(C)C)nc21` [Example 3, tert-butyl 4-[[6-[2,6-difluoro-3-[[(3R)-3-fluoropyrrolidin-1-yl]sulfonylamino]phenyl]-8-methyl-7-oxopyrido[2,3-d]pyrimidin-2-yl]amino]butanoate], in that order: 7.32, 7.88, 6.04, 69.8 and 7.82.
For the compound `CC(=O)N1CCC(CCCNc2ncc3cc(-c4c(F)ccc(NS(=O)(=O)N5CC[C@@H](F)C5)c4F)c(=O)n(C)c3n2)CC1` [Example 28, (3R)-N-[3-[2-[3-(1-acetylpiperidin-4-yl)propylamino]-8-methyl-7-oxopyrido[2,3-d]pyrimidin-6-yl]-2,4-difluorophenyl]-3-fluoropyrrolidine-1-sulfonamide], in test [1], the pKd is 7.28. The negative-log IC50 (pIC50) in test [2] is 7.48. For the same compound, in test [3], the negative-log EC50 (pEC50) was 5.86 and the “Fold Selectivity HCT-116 EC50-50/ A375” value amounted to 40.9. The pKd in test [4] is 7.83.
For `CNCCCNc1ncc2cc(-c3c(F)ccc(NS(=O)(=O)N4CC[C@@H](F)C4)c3F)c(=O)n(C)c2n1.Cl` [Example 16, (3R)-N-[2,4-difluoro-3-[8-methyl-2-[3-(methylamino)propylamino]-7-oxopyrido[2,3-d]pyrimidin-6-yl]phenyl]-3-fluoropyrrolidine-1-sulfonamide hydrochloride], in that order: 6.53, 6.16, no more than 5.00, 14.6 and 6.83.
On the same counts, the results for `Cl.O=c1c(-c2c(F)ccc(NS(=O)(=O)N3CC[C@@H](F)C3)c2F)cc2cnc(NCC3CC3)nc2n1C1CCNC1` (mixture of isomers) [Example 40, (3R)-N-[3-[2-(cyclopropylmethylamino)-7-oxo-8-[(3RS)-pyrrolidin-3-yl]pyrido[2,3-d]pyrimidin-6-yl]-2,4-difluorophenyl]-3-fluoropyrrolidine-1-sulfonamide hydrochloride] are 6.39, 5.42, no more than 5.00, 2.6 and 6.84.
On the same counts, the results for `Cl.Cn1c(=O)c(-c2c(F)ccc(NS(=O)(=O)N3CC[C@@H](F)C3)c2F)cc2cnc(NCCCC(=O)NC3CCNCC3)nc21` [Example 19, 4-[[6-[2,6-difluoro-3-[[(3R)-3-fluoropyrrolidin-1-yl]sulfonylamino]phenyl]-8-methyl-7-oxopyrido[2,3-d]pyrimidin-2-yl]amino]-N-piperidin-4-ylbutanamide hydrochloride] are 7.22, 5.14, no more than 5.00, 1.4 and 7.42.
In the case of `CC(=O)NCc1cccc(CCNc2ncc3cc(-c4c(F)ccc(NS(=O)(=O)N5CC[C@@H](F)C5)c4F)c(=O)n(C)c3n2)c1` [Example 34, N-[[3-[2-[[6-[2,6-difluoro-3-[[(3R)-3-fluoropyrrolidin-1-yl]sulfonylamino]phenyl]-8-methyl-7-oxopyrido[2,3-d]pyrimidin-2-yl]amino]ethyl]phenyl]methyl]acetamide], the pKd in test [1] was 8.40. Moreover, the pIC50 in test [2] is 7.94. In addition, in test [3], the pEC50 is 6.17 and the “Fold Selectivity HCT-116 EC50-50/ A375” value came out at 59.1. This compound gave a pKd in test [4] of 8.74.
On the same counts, the results for `CC(=O)N1CCC(CNc2ncc3cc(-c4c(F)ccc(NS(=O)(=O)N5CC[C@@H](F)C5)c4F)c(=O)n(C)c3n2)CC1` [Example 21, (3R)-N-[3-[2-[(1-acetylpiperidin-4-yl)methylamino]-8-methyl-7-oxopyrido[2,3-d]pyrimidin-6-yl]-2,4-difluorophenyl]-3-fluoropyrrolidine-1-sulfonamide] are 6.96, 7.06, no more than 5.00, greater than 115.3 and 7.21.
For `CC(=O)N[C@H]1C[C@H](n2c(=O)c(-c3c(F)ccc(NS(=O)(=O)N4CC[C@@H](F)C4)c3F)cc3cnc(NCC4CC4)nc32)C1` [Example 43, trans-N-[3-[2-(cyclopropylmethylamino)-6-[2,6-difluoro-3-[[(3R)-3-fluoropyrrolidin-1-yl]sulfonylamino]phenyl]-7-oxopyrido[2,3-d]pyrimidin-8-yl]cyclobutyl]acetamide], in that order: 7.89, 6.97, 6.39, 3.7 and 8.26.
For `Cl.Cn1c(=O)c(-c2c(F)ccc(NS(=O)(=O)N3CC[C@@H](F)C3)c2F)cc2cnc(NCCC3CCNCC3)nc21` [Example 14, (3R)—N-[2,4-difluoro-3-[8-methyl-7-oxo-2-(2-piperidin-4-ylethylamino)pyrido[2,3-d]pyrimidin-6-yl]phenyl]-3-fluoropyrrolidine-1-sulfonamide hydrochloride], in that order: 6.97, 6.10, no more than 5.00, 12.7 and 7.42.
In test [1], `Cn1c(=O)c(-c2c(F)ccc(NS(=O)(=O)C3CCCC3)c2F)cc2cnc(NCCC3CCN(C(=O)OC(C)(C)C)CC3)nc21` [Example 13, tert-butyl 4-[2-[[6-[3-(cyclopentylsulfonylamino)-2,6-difluorophenyl]-8-methyl-7-oxopyrido[2,3-d]pyrimidin-2-yl]amino]ethyl]piperidine-1-carboxylate] had a pKd of 6.36. Further, the pIC50 in test [2] is 6.56. In addition, in test [3], the pEC50 was 5.02 and the “Fold Selectivity HCT-116 EC50-50/ A375” value is 34.7. The compound further showed a pKd in test [4] of 6.46.
On the same counts, the results for `CCN(C)S(=O)(=O)Nc1ccc(F)c(-c2cc3cnc(NCCCNC)nc3n(C)c2=O)c1F.Cl` [Example 17, 6-[3-[[ethyl(methyl)sulfamoyl]amino]-2,6-difluorophenyl]-8-methyl-2-[3-(methylamino)propylamino]-7-oxopyrido[2,3-d]pyrimidine hydrochloride] are 6.41, 5.90, 5.12, 6.0 and 6.78.
